Results reported in patent US20240109881A1, “Heteroaryl Compounds as Ligand Directed Degraders of IRAK4” (Bristol-Myers Squibb Company, priority 2022, published 2024).

Target: T1, IRAK4 (Homo sapiens, UniProt Q9NWZ3)
T1 construct: endogenous in cells; host or cells: THP-1 cells
T1 sequence (Q9NWZ3 1-460): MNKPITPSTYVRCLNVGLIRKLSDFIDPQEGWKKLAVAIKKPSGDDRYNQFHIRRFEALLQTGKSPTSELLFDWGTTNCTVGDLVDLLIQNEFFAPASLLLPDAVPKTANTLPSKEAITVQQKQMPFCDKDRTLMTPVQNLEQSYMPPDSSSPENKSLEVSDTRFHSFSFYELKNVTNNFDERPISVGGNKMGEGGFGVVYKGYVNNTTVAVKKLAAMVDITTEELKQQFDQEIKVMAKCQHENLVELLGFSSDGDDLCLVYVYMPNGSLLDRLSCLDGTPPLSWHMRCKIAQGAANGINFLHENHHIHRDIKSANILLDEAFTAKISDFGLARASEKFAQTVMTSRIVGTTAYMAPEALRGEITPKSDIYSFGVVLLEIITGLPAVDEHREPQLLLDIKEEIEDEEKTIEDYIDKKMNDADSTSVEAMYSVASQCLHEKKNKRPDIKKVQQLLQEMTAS
Test: LVL THP1 HTRF (THP1 Homogeneous Time Resolved Fluorescence)
Type: cell-based
Conditions: THP1 cells, 18 h incubation with compound; for DC50: read-out: LVL THP1 HTRF EC50
Outline: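 IRAK4 HTRF read-out (665/615 nm ratio, anti-IRAK4 d2 acceptor and K donor, 18 h dark incubation at room temperature) on lysates of THP-1 cells. Cells were treated 18 h at 37° C. with 20 nL compound in DMSO, in colorless RPMI with 10% FBS, with a duplicate CTG plate.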

Row | LVL THP1 HTRF YMIN [%] | DC50 [nM] | Structure (SMILES)
1 | 24.2 | 645 | C[C@H](C#N)Nc1cc(-n2ncc3cc(C#N)cnc32)ncc1C(=O)N[C@H]1CC[C@H](CCN2CCN(c3ccc(N4CCC(=O)NC4=O)cc3)CC2)CC1 [P-321]
2 | 4.4 | 16.5 | C[C@H](C#N)Nc1cc(-n2ncc3cc(C#N)cnc32)ncc1-n1cc(C[C@H]2CC[C@H](CN3CCN(c4ccc(C5CCC(=O)NC5=O)cc4)CC3)CC2)nn1 (some centres unmarked) [P-322]
3 | 107.9 | 1000 | C[C@H](C#N)Nc1cc(-n2ncc3cc(C#N)cnc32)ncc1-n1cc([C@H]2CC[C@H](CCN3CC(Oc4ccc(N5CCC(=O)NC5=O)cc4)C3)CC2)nn1 [P-324]
4 | 5.1 | 29.8 | C[C@H](C#N)Nc1cc(-n2ncc3cc(C#N)cnc32)ncc1-n1cc([C@H]2CC[C@H](CCN3CCC(c4cccc5c(N6CCC(=O)NC6=O)nn(C)c45)CC3)CC2)nn1 [P-335]
5 | 7.1 | 22.1 | C[C@H](C#N)Nc1cc(-n2ncc3cc(C#N)cnc32)ncc1-n1cc([C@H]2CC[C@H](CCN3CCC(c4ccc(N5CCC(=O)NC5=O)c(Cl)c4)CC3)CC2)nn1 [P-342]
6 | 87.0 | 103 | C[C@H](C#N)Nc1cc(-n2ncc3cc(C#N)cnc32)ncc1-n1cc([C@H]2CC[C@H](CCN3CCC(c4ccc(NC5CCC(=O)NC5=O)cc4)CC3)CC2)nn1 (some centres unmarked) [P-343]
7 | 87.0 | 1000 | C[C@H](C#N)Nc1cc(-n2ncc3cc(C#N)cnc32)ncc1-n1cc([C@H]2CC[C@H](CCN3CCC(c4ccc(N5CCC(=O)NC5=O)cn4)CC3)CC2)nn1 [P-345]
8 | 17.5 | 92.8 | C[C@H](C#N)Nc1cc(-n2ncc3cc(C#N)cnc32)ncc1-n1cc([C@H]2CC[C@H](CCN3CCC(n4cc(C5CCC(=O)NC5=O)cn4)CC3)CC2)nn1 (some centres unmarked) [P-346]
9 | 14.6 | 29.7 | C[C@H](C#N)Nc1cc(-n2ncc3cc(C#N)cnc32)ncc1-n1cc([C@H]2CC[C@H](CCN3CCC(n4ccc(C5(F)CCC(=O)NC5=O)cc4=O)CC3)CC2)nn1 (some centres unmarked) [P-349]
10 | 3.7 | 2.2 | C[C@H](C#N)Nc1cc(-n2ncc3cc(C#N)cnc32)ncc1-n1cc([C@H]2CC[C@H](CCN3CCC(n4ccc(C5CCC(=O)NC5=O)cc4=O)CC3)CC2)nn1 (some centres unmarked) [P-350]
11 | 58.0 | 327 | C[C@H](C#N)Nc1cc(-n2ncc3cc(C#N)cnc32)ncc1-n1cc([C@H]2CC[C@H](CCN3CCCN(c4ccc(N5CCC(=O)NC5=O)cc4)CC3)CC2)nn1 [P-355]
12 | 26.7 | 179 | C[C@H](C#N)Nc1cc(-n2ncc3cc(C#N)cnc32)ncc1-n1cc([C@H]2CC[C@H](CCN3CCN(c4ccc(N5CCC(=O)NC5=O)cn4)[C@@H](C)C3)CC2)nn1 [P-357]
13 | −1.9 | 2.5 | C[C@H](C#N)Nc1cc(-n2ncc3cc(C#N)cnc32)ncc1-n1cc([C@H]2CC[C@H](CCN3CCN(c4ccc(N5CCC(=O)NC5=O)cn4)[C@H](C)C3)CC2)nn1 [P-359]
14 | 4.5 | 27.6 | Cc1cc(N2CCC(=O)NC2=O)ccc1N1CCN(CC[C@H]2CC[C@H](c3cn(-c4cnc(-n5ncc6cc(C#N)cnc65)cc4N[C@H](C)C#N)nn3)CC2)CC1 [P-360]
15 | 14.9 | 238 | C[C@H](C#N)Nc1cc(-n2ncc3cc(C#N)cnc32)ncc1-n1cc([C@H]2CC[C@H](CCN3CCN(c4cccc5c(N6CCC(=O)NC6=O)nn(C)c45)CC3)CC2)nn1 [P-362]
16 | 3.1 | 1.8 | C[C@H](C#N)Nc1cc(-n2ncc3cc(C#N)cnc32)ncc1-n1cc([C@H]2CC[C@H](CCN3CCN(c4ccc(N5CCC(=O)NC5=O)c(Cl)c4)CC3)CC2)nn1 [P-364]
17 | 2.0 | 10 | C[C@H](C#N)Nc1cc(-n2ncc3cc(C#N)cnc32)ncc1-n1cc([C@H]2CC[C@H](CCN3CCN(c4ccc(N5CCC(=O)NC5=O)cc4)CC3)CC2)nn1 [P-366]
18 | 3.0 | 2.2 | C[C@H](C#N)Nc1cc(-n2ncc3cc(C#N)cnc32)ncc1-n1cc([C@H]2CC[C@H](CCN3CCN(c4ccc5c(N6CCC(=O)NC6=O)nn(C)c5c4)CC3)CC2)nn1 [P-369]
19 | 1.2 | 30.5 | C[C@H](C#N)Nc1cc(-n2ncc3cc(C#N)cnc32)ncc1-n1cc([C@H]2CC[C@H](CCN3CCN(c4ccc(N5CCC(=O)NC5=O)nc4)CC3)CC2)nn1 [P-370]

Continued, compound first:

Row | Structure (SMILES) | LVL THP1 HTRF YMIN [%] | DC50 [nM]
20 | C[C@H](C#N)Nc1cc(-n2ncc3cc(C#N)cnc32)ncc1-n1cc([C@H]2CC[C@H](CCN3CC4(CC(c5ccc(N6CCC(=O)NC6=O)cc5)C4)C3)CC2)nn1 [P-329] | 2.6 | 5.9
21 | C[C@H](C#N)Nc1cc(-n2ncc3cc(C#N)cnc32)ncc1-n1cc([C@H]2CC[C@H](CCN3CC=C(c4ccc(N5CCC(=O)NC5=O)cc4)CC3)CC2)nn1 [P-330] | 2.3 | 17.4
22 | Cc1cc(N2CCC(=O)NC2=O)ccc1C1CCN(CC[C@H]2CC[C@H](c3cn(-c4cnc(-n5ncc6cc(C#N)cnc65)cc4N[C@H](C)C#N)nn3)CC2)CC1 [P-334] | 23.5 | 58.7
23 | Cc1cc(C2CCN(CC[C@H]3CC[C@H](c4cn(-c5cnc(-n6ncc7cc(C#N)cnc76)cc5N[C@H](C)C#N)nn4)CC3)CC2)ccc1N1CCC(=O)NC1=O [P-336] | 5.5 | 25.1
24 | C[C@H](C#N)Nc1cc(-n2ncc3cc(C#N)cnc32)ncc1-n1cc([C@H]2CC[C@H](CCN3CCC(c4ccc(C5(O)CCC(=O)NC5=O)cc4)CC3)CC2)nn1 (some centres unmarked) [P-339] | 93.1 | 18.6
25 | C[C@H](C#N)Nc1cc(-n2ncc3cc(C#N)cnc32)ncc1-n1cc([C@H]2CC[C@H](CCN3CCC(c4ccc(N5CCC(=O)NC5=O)cc4)CC3)CC2)nn1 [P-340] | 22.4 | 582
26 | C[C@H](C#N)Nc1cc(-n2ncc3cc(C#N)cnc32)ncc1-n1cc([C@H]2CC[C@H](CCN3CCC(c4ccc(N5CCC(=O)NC5=O)nc4)CC3)CC2)nn1 [P-341] | 81.8 | 2.4
27 | C[C@H](C#N)Nc1cc(-n2ncc3cc(C#N)cnc32)ncc1-n1cc([C@H]2CC[C@H](CCN3CCC(c4cn(C5CCC(=O)NC5=O)nn4)CC3)CC2)nn1 (some centres unmarked) [P-344] | 8.9 | 91.2
28 | C[C@H](C#N)Nc1cc(-n2ncc3cc(C#N)cnc32)ncc1-n1cc([C@H]2CC[C@H](CCN3CCC(n4cc(NC5CCC(=O)NC5=O)cn4)CC3)CC2)nn1 (some centres unmarked) [P-348] | 13.1 | 94.9
29 | C[C@H](C#N)Nc1cc(-n2ncc3cc(C#N)cnc32)ncc1-n1cc([C@H]2CC[C@H](CCN3CCC(n4nc(N5CCC(=O)NC5=O)c5ccccc54)CC3)CC2)nn1 [P-351] | 69.0 | –
30 | C[C@H](C#N)Nc1cc(-n2ncc3cc(C#N)cnc32)ncc1-n1cc([C@H]2CC[C@H](CCN3CCC(O)(c4ccc(C5CCC(=O)NC5=O)cc4)CC3)CC2)nn1 (some centres unmarked) [P-352] | 2.1 | 3.8
31 | C[C@H](C#N)Nc1cc(-n2ncc3cc(C#N)cnc32)ncc1-n1cc([C@H]2CC[C@H](CCN3CCC(O)(c4ccc(N5CCC(=O)NC5=O)cc4)CC3)CC2)nn1 [P-353] | 88.5 | 1000
32 | C[C@H](C#N)Nc1cc(-n2ncc3cc(C#N)cnc32)ncc1-n1cc([C@H]2CC[C@H](CCN3CCCN(c4ccc(C5CCC(=O)NC5=O)cc4)CC3)CC2)nn1 (some centres unmarked) [P-354] | 4.0 | 13.7
33 | C[C@H](C#N)Nc1cc(-n2ncc3cc(C#N)cnc32)ncc1-n1cc([C@H]2CC[C@H](CCN3CCN(c4ccc(N5CCC(=O)NC5=O)cc4)[C@@H](C)C3)CC2)nn1 [P-356] | 8.6 | 40.6
34 | C[C@H](C#N)Nc1cc(-n2ncc3cc(C#N)cnc32)ncc1-n1cc([C@H]2CC[C@H](CCN3CCN(c4ccc(N5CCC(=O)NC5=O)cc4)[C@H](C)C3)CC2)nn1 [P-358] | 0.6 | 4.8
35 | C[C@H](C#N)Nc1cc(-n2ncc3cc(C#N)cnc32)ncc1-n1cc([C@H]2CC[C@H](CCN3CCN(c4cccc5c(N6CCC(=O)NC6=O)cncc45)CC3)CC2)nn1 [P-361] | 1.2 | 5
36 | Cc1cc(N2CCN(CC[C@H]3CC[C@H](c4cn(-c5cnc(-n6ncc7cc(C#N)cnc76)cc5N[C@H](C)C#N)nn4)CC3)CC2)ccc1N1CCC(=O)NC1=O [P-363] | 5.0 | 7.6
37 | C[C@H](C#N)Nc1cc(-n2ncc3cc(C#N)cnc32)ncc1-n1cc([C@H]2CC[C@H](CCN3CCN(c4ccc(N5CCC(=O)NC5=O)c(F)c4)CC3)CC2)nn1 [P-365] | 2.0 | 2.3
38 | C[C@H](C#N)Nc1cc(-n2ncc3cc(C#N)cnc32)ncc1-n1cc([C@H]2CC[C@H](CCN3CCN(c4ccc(N5CCC(=O)NC5=O)cc4F)CC3)CC2)nn1 [P-367] | 7.9 | 116
39 | C[C@H](C#N)Nc1cc(-n2ncc3cc(C#N)cnc32)ncc1-n1cc([C@H]2CC[C@H](CCN3CCN(c4ccc(NC5CCC(=O)NC5=O)cc4)CC3)CC2)nn1 (some centres unmarked) [P-368] | 2.9 | 4.4
